These are literature values, as cited in patent US9993445B1, “Oral solution comprising atomoxetine hydrochloride and methods thereof” (TAHO Pharmaceuticals Ltd., priority 2016, dated 2018).

Structures can show the parent of a compound that is named as a salt.

For the data set the following is noted: room temperature.

On to `CNCCC(Oc1ccccc1C)c1ccccc1` (single isomer, unassigned; (-)) [Atomoxetine hydrochloride, (−)-N-methyl-3-phenyl-3 (o-tolyloxy) propylamine], for which the soluble in water was 27.8 mg/mL.
